# Legend:
# L1210 [1] = assay: Cytotoxicity against Mus musculus (mouse) L1210 cells; format: functional
# Rattus norvegicus = species: Rattus norvegicus; assay: Toxicity in Rattus norvegicus (rat); format: organism-based; settings: in vivo
# B16 = assay: Antitumor activity against Mus musculus (mouse) B16 cells xenografted in rat; format: functional
# L1210 [2] = assay: Antitumor activity against Mus musculus (mouse) L1210 cells xenografted in rat; format: functional
structure (smiles),measurement,setting,value
O=C1C(Cl)=C(N2CC2)C(=O)C(Cl)=C1N1CC1,log(1/MIC),L1210 [1],-0.3
O=C1C(Br)=C(N2CC2)C(=O)C(Br)=C1N1CC1,log(1/MIC),L1210 [1],0.35
O=C1C(N2CC2)=C(N2CC2)C(=O)C(N2CC2)=C1N1CC1,log(1/MIC),L1210 [1],0.9
O=C1C(F)=C(N2CC2)C(=O)C(F)=C1N1CC1,log(1/MIC),L1210 [1],-0.2
CC1=C(C)C(=O)C(N2CCCC2)=CC1=O,log(1/MIC),L1210 [1],-1.7
CC1=C(N2CC2C)C(=O)C(Br)=C(N2CC2C)C1=O (centres undefined),log(1/LD50),Rattus norvegicus,1.59
CCC1=C(N2CC2)C(=O)C(Br)=C(N2CC2)C1=O,log(1/MIC),B16,2.6
same,log(1/LD50),Rattus norvegicus,1.39
CC1=C(N2C(C)C2C)C(=O)C(Br)=C(N2C(C)C2C)C1=O (centres undefined),log(1/MIC),L1210 [2],0.69
same,log(1/MIC),L1210 [1],-0.1
same,log(1/LD50),Rattus norvegicus,0.63
O=C1C(N2CCCC2)=C(N2CC2)C(=O)C(N2CCCC2)=C1N1CC1,log(1/MIC),B16,2.4
same,log(1/MIC),L1210 [1],-0.3
O=C1C(F)=C(N2CC2)C(=O)C(N2CC2)=C1N1CC1,log(1/LD50),Rattus norvegicus,1.62
CN(CCO)C1=C(N2CC2)C(=O)C(N(C)CCO)=C(N2CC2)C1=O,log(1/MIC),L1210 [1],0.09
CCOC(=O)NC1=C(N2CC2C)C(=O)C(NC(=O)OCC)=C(N2CC2C)C1=O (centres undefined),log(1/MIC),L1210 [1],-1
same,log(1/LD50),Rattus norvegicus,0.69
CC1=C(C)C(=O)C(N2CC=CC2)=CC1=O,log(1/MIC),L1210 [1],-0.7
NC(=O)OCCC1=C(N2CC2)C(=O)C(Br)=C(N2CC2)C1=O,log(1/MIC),L1210 [2],2
same,log(1/LD50),Rattus norvegicus,1.05
CC1=C(N2CC2C)C(=O)C(CCOC(N)=O)=C(N2CC2C)C1=O (centres undefined),log(1/MIC),L1210 [1],-0.1
CC1CN1C1=CC(=O)C(N2CC2C)=CC1=O (centres undefined),log(1/LD50),Rattus norvegicus,1.16
COC1=C(C)C(=O)C(N2CCCC2)=CC1=O,log(1/MIC),L1210 [1],-1.6
O=C1C=C(N2CCCC2)C(=O)C=C1N1CCCC1,log(1/MIC),L1210 [1],-1.6
O=C1C(NCCO)=C(N2CC2)C(=O)C(NCCO)=C1N1CC1,log(1/MIC),L1210 [2],3.39
same,log(1/MIC),B16,3.94
same,log(1/MIC),L1210 [1],0.42
CNC1=C(N2CC2C)C(=O)C(NC)=C(N2CC2C)C1=O (centres undefined),log(1/MIC),L1210 [2],2.19
same,log(1/MIC),B16,2.33
same,log(1/MIC),L1210 [1],-0.3
CC1CN1C1=CC(=O)C(N2CC2C)=C(F)C1=O (centres undefined),log(1/MIC),L1210 [1],1.49
same,log(1/LD50),Rattus norvegicus,1.5
COC1=C(N2CC2C)C(=O)C=C(N2CC2C)C1=O (centres undefined),log(1/MIC),L1210 [2],1.47
same,log(1/MIC),B16,2.27
same,log(1/MIC),L1210 [1],-0.5
same,log(1/LD50),Rattus norvegicus,1.4
CNC1=C(N2CC2)C(=O)C(NC)=C(N2CC2)C1=O,log(1/MIC),L1210 [2],2.49
same,log(1/MIC),B16,3.14
same,log(1/MIC),L1210 [1],0.32
CC1=C(N2CC2)C(=O)C(CCOC(N)=O)=C(N2CC2)C1=O,log(1/LD50),Rattus norvegicus,1.99
CC1CN1C1=C(N2CCCC2)C(=O)C(N2CC2C)=C(N2CCCC2)C1=O (centres undefined),log(1/MIC),L1210 [1],-1.1
CC1=C(N2CC2)C(=O)C(Br)=C(N2CC2)C1=O,log(1/LD50),Rattus norvegicus,1.44
CC1CN1C1=C(F)C(=O)C(N2CC2C)=C(N2CC2C)C1=O (centres undefined),log(1/LD50),Rattus norvegicus,1.45
CC1CN1C1=C(Cl)C(=O)C(N2CC2C)=C(Cl)C1=O (centres undefined),log(1/MIC),L1210 [2],1.16
same,log(1/MIC),L1210 [1],-0.6
CC1CN1C1=C(Br)C(=O)C(N2CC2C)=C(Br)C1=O (centres undefined),log(1/MIC),L1210 [1],0.77
CCOC(=O)NC1=CC(=O)C(NC(=O)OCC)=CC1=O,log(1/MIC),L1210 [1],0.09
O=C1C=C(N2CC=CC2)C(=O)C=C1N1CC=CC1,log(1/MIC),L1210 [1],-1.6
CC1=C(N2CC2)C(=O)C(CCO)=C(N2CC2)C1=O,log(1/MIC),B16,3.6
same,log(1/LD50),Rattus norvegicus,1.39
CCC1=C(N2CC2)C(=O)C(C)=C(N2CC2)C1=O,log(1/MIC),L1210 [1],-0.3
same,log(1/LD50),Rattus norvegicus,1.46
O=C1C=C(N2CC2)C(=O)C=C1N1CC1,log(1/LD50),Rattus norvegicus,1.8
COC1=C(N2CC2)C(=O)C(OC)=C(N2CC2)C1=O,log(1/MIC),L1210 [1],0.15
COC(COC(N)=O)C1=C(N2CC2)C(=O)C(C)=C(N2CC2)C1=O (centres undefined) [CARBOQUONE],log(1/LD50),Rattus norvegicus,1.73
CCOC(=O)NC1=C(N2CC2)C(=O)C(NC(=O)OCC)=C(N2CC2)C1=O [DIAZIQUONE],log(1/MIC),L1210 [1],-0.5
same,log(1/LD50),Rattus norvegicus,1.54
O=C1C=C(N2CC2)C(=O)C(N2CC2)=C1N1CC1 [TRIAZIQUONE],log(1/MIC),B16,3.8
same,log(1/LD50),Rattus norvegicus,2.66

# From ChEMBL document CHEMBL3044538, “QSAR Analysis of BABQ compounds via calculated molecular descriptors” (Med Chem Res, 2006)
